The values that follow come from PMC10054758, “A Structural-Reporter Group to Determine the Core Conformation of Sialyl Lewis^x Mimetics” (Molecules, 2023).

Assay [1] has as its target T1, E-selectin (Homo sapiens, UniProt P16581).
T1 construct: mixed 1:1 with a solution of 0.2 μM labeled E-SelectinSCR2; made in house
T1 sequence (P16581 22-301 limits assumed): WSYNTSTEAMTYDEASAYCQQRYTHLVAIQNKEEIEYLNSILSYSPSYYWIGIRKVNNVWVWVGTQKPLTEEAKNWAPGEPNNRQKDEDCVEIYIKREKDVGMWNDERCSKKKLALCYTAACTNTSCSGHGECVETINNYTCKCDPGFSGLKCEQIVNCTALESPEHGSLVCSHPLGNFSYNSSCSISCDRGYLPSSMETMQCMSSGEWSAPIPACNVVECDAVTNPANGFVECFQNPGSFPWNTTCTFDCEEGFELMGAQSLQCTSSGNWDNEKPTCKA
As to the kind of experiment: E-selectin affinity, literature data. In kind it is binding. The settings on record: for ΔG (Gibbs Free Energy): calculated ΔG = -RT lnKD from literature KD.

Assay [2] has as its target T1, E-selectin. Put plainly: Microscale thermophoresis (MST) affinity measurement. Type of assay: binding. The settings on record: for Kd: MST, 25 °C, labeled E-selectinSCR2. As to the method: E-selectin production (cloning, transfection, expression, and purification) and labeling were previously described for the E-selectinSCR6-IgGFc construct and for the E-selectinSCR2 construct.
E-selectinLEC2 was labeled using the amine reactive protein labeling kit BLUE-NHS as described in the Supporting Information. Buffer exchange and labeling were performed according to the manufacturer’s protocol. […] The labeled protein was dialyzed over night against assay buffer (10 mM HEPES pH 7.4, 150 mM NaCl, 1 mM CaCl2) using Slide-A-Lyzer dialysis cassettes (10 kDa MWCO). Protein concentration was determined by HPLC-UV against a BSA standard.
Microscale thermophoresis (MST) experiments were carried out at 25 °C with 100% LED power, 50% laser power, a laser on time of 30 s, and a laser off time of 5 sec using standard treated capillaries. Ligands were dissolved in assay buffer supplemented with 0.05% v/v Tween20 and titrated 1:1 for a total of 16 dilution steps. The dilution series of ligand was mixed 1:1 with a solution of 0.2 μM labeled E-SelectinSCR2 and incubated for 10 min at room temperature before measurement. Datapoints were normalized using the bound and unbound borders achieved by NanoTemper Analysis 1.2.205 software (NanoTemper Technologies GmbH, Munich, Germany) and analyzed/illustrated with GraphPad Prism 5.0 (GraphPad Software, La Jolla, CA, USA). The measurements were globally fitted using Equation (1) for single site binding. (1) PL=(CP+CL+KD) - (CP+CL+KD) - 4CPCL/2CP where [PL] is the protein–ligand complex concentration and KD is the dissociation constant. CP represents the total concentration of protein and CL the total concentration of ligand.
(In MST a laser heats a spot of the sample, and binding alters the fluorescence response.)

The target in assay [3] is T1, E-selectin. The settings on record: literature data; cited from earlier work.
Assay [4] concerns the target T1, E-selectin. More on the design: method as in PMID 22782926. The settings on record: binding to E-selectin; cited from earlier work.

Where two headings read alike, the source gives them in different places.

For `C[C@@H]1O[C@@H](O[C@@H]2CCCC[C@H]2O[C@@H]2O[C@H](CO)[C@H](O)[C@H](O[C@@H](CC3CCCCC3)C(=O)O)[C@H]2O)[C@@H](O)[C@H](O)[C@@H]1O` [2a], the improvement of affinity entry on E-selectin [1] (GlcNAc replaced by (R,R)-cyclohexane-1,2-diol (22→2a)) is “five-fold”; at E-selectin [1] (compared to 21), 80 fold. In addition, the “ΔG (Gibbs Free Energy)” value at E-selectin [1] is -5.75 kcal/mol. For the same compound, the ΔΔG at E-selectin [1] (relative to 21 (ΔΔG21→2a)) was found to be 2.603 kcal/mol.
For the compound `CC(C)[C@H]1CCC[C@@H](O[C@@H]2O[C@H](CO)[C@H](O)[C@H](O[C@@H](CC3CCCCC3)C(=O)O)[C@H]2O)[C@@H]1O[C@@H]1O[C@@H](C)[C@@H](O)[C@@H](O)[C@@H]1O` [2d], at E-selectin [2], the Kd came to 6.8 µM.
As for `C[C@@H]1O[C@@H](O[C@@H]2[C@@H](Cc3ccccc3)CCC[C@H]2O[C@@H]2O[C@H](CO)[C@H](O)[C@H](O[C@@H](CC3CCCCC3)C(=O)O)[C@H]2O)[C@@H](O)[C@H](O)[C@@H]1O` [2e], the Kd on E-selectin [2] came to 18 µM.
In turn, `C[C@@H]1O[C@@H](O[C@@H]2[C@@H](CC3CCCCC3)CCC[C@H]2O[C@@H]2O[C@H](CO)[C@H](O)[C@H](O[C@@H](CC3CCCCC3)C(=O)O)[C@H]2O)[C@@H](O)[C@H](O)[C@@H]1O` [2f] returned a Kd at E-selectin [2] of 14 µM.
`C[C@@H]1O[C@@H](O[C@@H]2[C@@H](c3ccccc3)CCC[C@H]2O[C@@H]2O[C@H](CO)[C@H](O)[C@H](O[C@@H](CC3CCCCC3)C(=O)O)[C@H]2O)[C@@H](O)[C@H](O)[C@@H]1O` [2g] registered a Kd on E-selectin [2] of 8.8 µM.
For the compound `C[C@@H]1O[C@@H](O[C@H]2[C@H](O[C@@H]3O[C@H](CO)[C@H](O)[C@H](O[C@@H](CC4CCCCC4)C(=O)O)[C@H]3O)CCC[C@@H]2C(C)(C)C)[C@@H](O)[C@H](O)[C@@H]1O` [2h], the Kd at E-selectin [2] stood at 51 µM.
On E-selectin [2], `CCCC[C@H]1CCC[C@@H](O[C@@H]2O[C@H](CO)[C@H](O)[C@H](O[C@@H](CC3CCCCC3)C(=O)O)[C@H]2O)[C@@H]1O[C@@H]1O[C@@H](C)[C@@H](O)[C@@H](O)[C@@H]1O` [2i] showed a Kd of 5.4 µM.
Turning to `CCCCCC[C@H]1CCC[C@@H](O[C@@H]2O[C@H](CO)[C@H](O)[C@H](O[C@@H](CC3CCCCC3)C(=O)O)[C@H]2O)[C@@H]1O[C@@H]1O[C@@H](C)[C@@H](O)[C@@H](O)[C@@H]1O` [2j], binding at E-selectin [2] was characterised by a dissociation constant (Kd) of 4.3 µM. Also, on E-selectin [2] (calculated ΔG = -RT lnKD from MST KD), the “ΔG (Gibbs Free Energy)” value is -7.321 kcal/mol. The compound also had a ΔΔG on E-selectin [2] (relative to 2a (ΔΔG2a→2b, ΔΔG2a→2j)) of 1.57 kcal/mol.
`C[C@@H]1O[C@@H](O[C@@H]2[C@@H](CCCc3ccccc3)CCC[C@H]2O[C@@H]2O[C@H](CO)[C@H](O)[C@H](O[C@@H](CC3CCCCC3)C(=O)O)[C@H]2O)[C@@H](O)[C@H](O)[C@@H]1O` [2k] came in with a Kd on E-selectin [2] of 28 µM.
Still for that read-out and setting: the figure for `COCCOC[C@H]1CCC[C@@H](O[C@@H]2O[C@H](CO)[C@H](O)[C@H](O[C@@H](CC3CCCCC3)C(=O)O)[C@H]2O)[C@@H]1O[C@@H]1O[C@@H](C)[C@@H](O)[C@@H](O)[C@@H]1O` [2l] is 31 µM.
In the case of `CC(C)C[C@H]1CCC[C@@H](O[C@@H]2O[C@H](CO)[C@H](O)[C@H](O[C@@H](CC3CCCCC3)C(=O)O)[C@H]2O)[C@@H]1O[C@@H]1O[C@@H](C)[C@@H](O)[C@@H](O)[C@@H]1O` [2m], on E-selectin [2], the Kd was determined as 6 µM.
Take `C[C@@H]1O[C@@H](O[C@@H]2[C@@H](CC(F)(F)F)CCC[C@H]2O[C@@H]2O[C@H](CO)[C@H](O)[C@H](O[C@@H](CC3CCCCC3)C(=O)O)[C@H]2O)[C@@H](O)[C@H](O)[C@@H]1O` [2n]: the affinity on E-selectin [2], expressed as Kd, was 9.5 µM.
Consider `C[C@@H]1O[C@@H](OCCO[C@@H]2O[C@H](CO)[C@H](O)[C@H](O[C@@H](CC3CCCCC3)C(=O)O)[C@H]2O)[C@@H](O)[C@H](O)[C@@H]1O` [compound 21, reference compound], for which the Kd on E-selectin [3] was 4920 µM. Besides, the “ΔG (Gibbs Free Energy)” value at E-selectin [1] was -3.148 kcal/mol.
On to `CO[C@@H]1O[C@H](CO)[C@@H](O[C@@H]2O[C@H](CO)[C@H](O)[C@H](O[C@@H](CC3CCCCC3)C(=O)O)[C@H]2O)[C@H](O[C@@H]2O[C@@H](C)[C@@H](O)[C@@H](O)[C@@H]2O)[C@H]1NC(C)=O` [compound 22], for which the Kd at E-selectin [3] was 280 µM.
On to `COC1OC(CO)C(OC2OC(CO)C(O)C(OC3(C(=O)O)CC(O)C(NC(C)=O)C(C(O)C(O)CO)O3)C2O)C(OC2OC(C)C(O)C(O)C2O)C1NC(C)=O` (stereo not shown) [sLe^x (1), sialyl Lewis^x], for which the “entropy term −TΔS°” value on E-selectin [4] is 5.4 kcal/mol. For the same compound, the Kd on E-selectin [3] is 877 µM.

A word on the Kd: it is the free concentration of one partner at which half of the binding sites on the other are occupied at equilibrium, for simple one-to-one binding.
